Data set [1] has as its target T1, fibrin (in vitro human plasma clot) (Homo sapiens, UniProt P02671+P02675+P02679).
T1 construct: about 400 μl of human plasma containing the radiolabelled substrate; from tissue; host or cells: human plasma, clotted in vitro with added thrombin and calcium chloride
T1 sequence (P02671 20-644 isoform P02671-2 limits assumed): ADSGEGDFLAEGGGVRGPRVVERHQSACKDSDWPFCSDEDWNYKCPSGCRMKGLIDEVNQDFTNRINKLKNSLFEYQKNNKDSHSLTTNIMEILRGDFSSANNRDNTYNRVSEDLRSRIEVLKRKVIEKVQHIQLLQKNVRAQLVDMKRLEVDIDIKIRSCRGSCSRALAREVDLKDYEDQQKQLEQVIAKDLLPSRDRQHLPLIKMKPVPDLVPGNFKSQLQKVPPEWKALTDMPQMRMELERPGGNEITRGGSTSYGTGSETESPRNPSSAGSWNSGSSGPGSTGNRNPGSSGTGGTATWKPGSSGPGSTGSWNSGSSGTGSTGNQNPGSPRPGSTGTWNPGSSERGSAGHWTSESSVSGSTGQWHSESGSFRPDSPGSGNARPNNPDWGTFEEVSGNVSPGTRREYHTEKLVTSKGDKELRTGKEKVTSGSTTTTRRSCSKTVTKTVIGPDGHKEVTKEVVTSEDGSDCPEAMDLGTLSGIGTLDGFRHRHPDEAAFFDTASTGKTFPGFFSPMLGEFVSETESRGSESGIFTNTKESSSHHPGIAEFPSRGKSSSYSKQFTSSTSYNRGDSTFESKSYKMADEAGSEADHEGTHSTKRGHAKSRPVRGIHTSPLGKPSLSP
T1 sequence (P02675 45-491 limits assumed): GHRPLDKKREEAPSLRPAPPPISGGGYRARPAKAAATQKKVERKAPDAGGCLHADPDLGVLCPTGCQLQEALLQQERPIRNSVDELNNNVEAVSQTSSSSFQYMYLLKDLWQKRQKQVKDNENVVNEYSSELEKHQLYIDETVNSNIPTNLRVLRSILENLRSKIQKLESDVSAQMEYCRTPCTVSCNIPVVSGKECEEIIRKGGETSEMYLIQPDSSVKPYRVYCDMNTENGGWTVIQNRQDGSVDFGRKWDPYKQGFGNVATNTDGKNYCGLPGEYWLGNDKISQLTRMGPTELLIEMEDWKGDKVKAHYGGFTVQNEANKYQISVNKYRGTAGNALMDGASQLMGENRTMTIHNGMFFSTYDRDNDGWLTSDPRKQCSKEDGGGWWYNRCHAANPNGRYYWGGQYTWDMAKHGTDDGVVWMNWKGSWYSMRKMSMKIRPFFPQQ
T1 sequence (P02679 27-437 isoform P02679-2 limits assumed): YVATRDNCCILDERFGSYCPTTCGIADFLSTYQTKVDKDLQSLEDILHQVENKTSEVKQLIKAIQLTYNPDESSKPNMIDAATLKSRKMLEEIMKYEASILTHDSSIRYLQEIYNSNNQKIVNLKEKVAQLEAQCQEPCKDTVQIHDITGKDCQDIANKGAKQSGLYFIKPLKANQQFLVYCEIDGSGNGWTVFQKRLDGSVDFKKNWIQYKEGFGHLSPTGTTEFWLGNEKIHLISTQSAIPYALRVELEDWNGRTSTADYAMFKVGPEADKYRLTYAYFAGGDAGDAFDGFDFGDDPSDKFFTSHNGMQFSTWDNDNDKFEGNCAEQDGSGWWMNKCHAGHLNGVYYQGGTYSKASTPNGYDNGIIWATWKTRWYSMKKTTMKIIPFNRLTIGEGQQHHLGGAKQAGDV
The data set is described as follows: Incorporation into human plasma clots in vitro. Type of data set: biochemical. The settings on record: for % specific uptake: % retained (with thrombin) - % retained (no thrombin); for % retained (no thrombin): control without thrombin and calcium chloride (non-specific binding); for % retained (with thrombin): human plasma clot, 60 minutes, ca. 20° C. In short, it runs like this: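 Fibrin incorporation is expressed as the fraction of total radioactivity retained with filtered clots, corrected for non-specific binding in controls lacking thrombin and calcium chloride. Clotting was induced by thrombin in Ca2+-containing Tris-buffered saline (pH 7.5) with human plasma carrying about 10 kBq/ml tracer, for 60 min at ambient temperature before EDTA quench.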

Data set [2] can be described thus: Incorporation into clots induced in a rat model (rat inferior vena cava model). Type of data set: in vivo, rat (Male Wistar). To be noted: for % id/g (clot) / Rel. Conc. (cpm/g of clot by dose/g animal): sacrificed after 60 min. The gist of the method: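 Male Wistar rats (250–350 g) under 15% urethane anaesthesia, with the vena cava isolated by laparotomy. Compounds given 5 min (fresh clot) or 60 min (aged clot) after clot induction; clot, blood, lung and heart removed 60 min later, weighed and counted. Uptake expressed as cpm/g clot per dose/g animal and as clot-to-background tissue ratio.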

For data set [3] the following is noted: human, plasma, 2 h.
Experimental: (§1) To a portion of compound (50 μl, 10 MBq/ml) was added an equal volume of plasma (rat or human) or saline. The mixtures were incubated at 37° C. and the stability measured by HPLC (system C) at 0, 30 and 120 minutes. The saline dilution acted as a control.
For data set [4] the following is noted: rat, plasma, 2 h.
Experimental: as §1
Setting [5] is: Aged Clots: injected 60 min post-induction.
Where [6] appears, read: Fresh Clots: injected 5 min post-induction.

The results in this text go back to US7049289B1, “Labelled glutamine and lysine analogues” (Amersham PLC, priority 1998, dated 2006).

Read-outs that look alike come from different tables or passages of the source. *1 amine or outer side, *2 acyl side, *3 side chain or, on linkers, in order; H or OH if unused. Glutaryl = O=C(CCCC(=O)[*:2])[*:1]; code Z = not defined here Bounds are passed on as bounds.

In the case of “Ac-NQEAVSPYTLLKG-Pn44 (also: 99mTc complex) [^99mTc-Cmpd 12]”, in data set [1], the “% specific uptake” value came out at 34.5%, the “% retained (no thrombin)” value came to 0.3% and the “% retained (with thrombin)” value worked out at 34.8%. In data set [2] (Aged Clots), the Clot/blood came out at 19, the Clot/heart is reported as 75, the Clot/liver is 7 and the Clot/lung worked out at 15. Also, in data set [2] (setting [5]), the “% id/g (clot)” value was found to be 4.1 ± 1.2 % id/g and the “Rel. Conc. (cpm/g of clot by dose/g animal)” value worked out at 11.2 ± 3.4. Also, in data set [2] (Fresh Clots), the Clot/blood was 20, the Clot/heart is on record as 31, the Clot/liver is given as 8 and the Clot/lung is listed as 17. Further, in data set [2] (setting [6]), the “% id/g (clot)” value is listed as 7.3 ± 4.1 % id/g and the “Rel. Conc. (cpm/g of clot by dose/g animal)” value came to 19.8 ± 11.0. Besides, the “% intact at 120 mins” value in data set [3] is listed as greater than 90%. Besides, the “% intact at 120 mins” value in data set [4] was greater than 90%.
On to Ac-NQEQVG-Pn44 [^99mTc-Cmpd 17], for which, in data set [1], the “% specific uptake” value came out at 40.6%, the “% retained (no thrombin)” value came to 0.7% and the “% retained (with thrombin)” value stood at 41.3%. In data set [2] (Aged Clots), this substance had a Clot/blood of 3, a Clot/heart of 7, a Clot/liver of 3 and a Clot/lung of 5. In data set [2] (setting [5]), the “% id/g (clot)” value turned out to be 0.8 ± 0.1 % id/g and the “Rel. Conc. (cpm/g of clot by dose/g animal)” value turned out to be 2.7 ± 0.6. Besides, in data set [2] (Fresh Clots), the Clot/blood is reported as 7, the Clot/heart is recorded as 18, the Clot/liver is 5 and the Clot/lung amounted to 12. In data set [2] (setting [6]), the “% id/g (clot)” value turned out to be 1.2 ± 0.7 % id/g and the “Rel. Conc. (cpm/g of clot by dose/g animal)” value was found to be 3.7 ± 2.3. Besides, the “% intact at 120 mins” value in data set [3] is given as greater than 90%. Moreover, in data set [4], the “% intact at 120 mins” value is greater than 90%.
Take “Ac-NQEQVSPYTLLKG-Hynic (also: 99mTc complex) [^99mTc-Cmpd 4]”: in data set [1], the “% specific uptake” value amounted to 21.0%, the “% retained (no thrombin)” value was 0.1% and the “% retained (with thrombin)” value stood at 22.0%. In addition, in data set [2] (Aged Clots), the Clot/blood turned out to be 8, the Clot/heart was determined as 19, the Clot/liver was 19 and the Clot/lung is recorded as 10. Besides, in data set [2] (setting [5]), the “% id/g (clot)” value was found to be 1.2 ± 1.1 % id/g and the “Rel. Conc. (cpm/g of clot by dose/g animal)” value amounted to 4.1 ± 4.0. In data set [2] (Fresh Clots), this substance registered a Clot/blood of 6, a Clot/heart of 15, a Clot/liver of 20 and a Clot/lung of 8. Moreover, in data set [2] (setting [6]), the “% id/g (clot)” value is 2.0 ± 0.6 % id/g and the “Rel. Conc. (cpm/g of clot by dose/g animal)” value amounted to 6.5 ± 2.0. Also, the “% intact at 120 mins” value in data set [3] was greater than 90%. Further, in data set [4], the “% intact at 120 mins” value is listed as greater than 90%.
“Pn216-CO(CH2)3CO-NQEQVSPYTLLKG-NH2 ({Pn216-Glutaryl}-NQEQVSPYTLLKG-NH2; also: 99mTc complex) [^99mTc-Cmpd 39]”: in data set [1], the “% specific uptake” value is 23.0%, the “% retained (no thrombin)” value is reported as 0.1% and the “% retained (with thrombin)” value stood at 23.1%. For the same substance, in data set [2] (Aged Clots), the Clot/blood is on record as 15, the Clot/heart was found to be 43, the Clot/liver is recorded as 11 and the Clot/lung is 12. In data set [2] (setting [5]), the “% id/g (clot)” value is recorded as 2.4 ± 0.3 % id/g and the “Rel. Conc. (cpm/g of clot by dose/g animal)” value came to 8.2 ± 1.1. In data set [2] (Fresh Clots), this substance showed a Clot/blood of 9, a Clot/heart of 29, a Clot/liver of 31 and a Clot/lung of 14. Besides, in data set [2] (setting [6]), the “% id/g (clot)” value is 2.5 ± 0.3 % id/g and the “Rel. Conc. (cpm/g of clot by dose/g animal)” value amounted to 9.0 ± 1.1.
As to “Z-NQEQVSP(I-Y)TLLKG-Pn216 [^99mTc-Cmpd 24]”, in data set [1], the “% specific uptake” value was 56.4%, the “% retained (no thrombin)” value was found to be 0.4% and the “% retained (with thrombin)” value came out at 56.8%. For the same substance, in data set [2] (Aged Clots), the Clot/blood turned out to be 15, the Clot/heart was found to be 40, the Clot/liver turned out to be 37 and the Clot/lung was determined as 20. Also, in data set [2] (setting [5]), the “% id/g (clot)” value is 4.1 ± 2.5 % id/g and the “Rel. Conc. (cpm/g of clot by dose/g animal)” value stood at 11.9 ± 8.0. Also, in data set [2] (Fresh Clots), the Clot/blood stood at 10, the Clot/heart came out at 21, the Clot/liver was 11 and the Clot/lung turned out to be 10. Besides, in data set [2] (setting [6]), the “% id/g (clot)” value turned out to be 4.0 ± 2.2 % id/g and the “Rel. Conc. (cpm/g of clot by dose/g animal)” value amounted to 11.1 ± 6.7.
Regarding “Z-NQEQVSPYAAAAG-Pn216 ({code Z}-NQEQVSPYAAAAG-Pn216; reading uncertain; also: 99mTc complex, printed as Z-NQEQVSPYAAAAG-Pn216) [^99mTc-Cmpd 42]”, in data set [1], the “% specific uptake” value came to 14.0%, the “% retained (no thrombin)” value was 0.2% and the “% retained (with thrombin)” value came to 14.2%. Besides, in data set [2] (Aged Clots), the Clot/blood is listed as 5, the Clot/heart worked out at 21, the Clot/liver was found to be 6 and the Clot/lung amounted to 7. Further, in data set [2] (setting [5]), the “% id/g (clot)” value is 0.4 ± 0.1 % id/g and the “Rel. Conc. (cpm/g of clot by dose/g animal)” value turned out to be 1.3 ± 0.3. In data set [2] (Fresh Clots), this substance gave a Clot/blood of 2, a Clot/heart of 1, a Clot/liver of 63 and a Clot/lung of 0.3. For the same substance, in data set [2] (setting [6]), the “% id/g (clot)” value is recorded as 0.3 ± 0.1 % id/g and the “Rel. Conc. (cpm/g of clot by dose/g animal)” value is 0.3 ± 0.2.
On to “Z-NQEQVSPYTLLKG-Pn216 ({code Z}-NQEQVSPYTLLKG-Pn216; reading uncertain; also: 99mTc complex, printed as Z-NQEQVSPYTLLKG-Pn216) [^99mTc-Cmpd 8]”, for which, in data set [1], the “% specific uptake” value worked out at 24.5%, the “% retained (no thrombin)” value turned out to be 1.4% and the “% retained (with thrombin)” value is listed as 25.9%. Further, in data set [2] (Aged Clots), the Clot/blood is 10, the Clot/heart is listed as 24, the Clot/liver is reported as 16 and the Clot/lung stood at 9. Besides, in data set [2] (setting [5]), the “% id/g (clot)” value came to 5.3 ± 1.3 % id/g and the “Rel. Conc. (cpm/g of clot by dose/g animal)” value turned out to be 16.4 ± 4.3. In data set [2] (Fresh Clots), this substance returned a Clot/blood of 14, a Clot/heart of 41, a Clot/liver of 21 and a Clot/lung of 18. In data set [2] (setting [6]), the “% id/g (clot)” value amounted to 6.7 ± 1.7 % id/g and the “Rel. Conc. (cpm/g of clot by dose/g animal)” value is recorded as 21.0 ± 6.8.
As to p-EAQIVG-Pn44 [^99mTc-Cmpd 46], in data set [1], the “% specific uptake” value amounted to 6.1%, the “% retained (no thrombin)” value is 0.2% and the “% retained (with thrombin)” value amounted to 6.3%. For the same substance, the “in vitro clot uptake (in words)” value in data set [1] (in vitro clot) is reported as “significant reduction in uptake”. In data set [2] (Aged Clots), the Clot/blood turned out to be 4, the Clot/heart was determined as 5, the Clot/liver is 1 and the Clot/lung was found to be 3. In addition, in data set [2] (setting [5]), the “% id/g (clot)” value was 0.5 ± 0.2 % id/g and the “Rel. Conc. (cpm/g of clot by dose/g animal)” value amounted to 1.3 ± 0.6. Besides, in data set [2] (Fresh Clots), the Clot/blood is 5, the Clot/heart is given as 6, the Clot/liver was found to be 1 and the Clot/lung is given as 3. Besides, in data set [2] (setting [6]), the “% id/g (clot)” value came to 0.8 ± 0.4 % id/g and the “Rel. Conc. (cpm/g of clot by dose/g animal)” value is on record as 2.0 ± 0.7.
